Data: EP0055702B1, “Antithrombotic treatment” (priority 1980, dated 1982)
“And” between values parts separate entries of the source, which are not always exact repeats. Equal entries are not always repeated. Where two headings read alike, the source gives them in different places.

Assays:
rats = assay: Rats fed bait containing 0.5% sodium bisulphite; type: in vivo
From the text: Five rats, each in a separate cage, were given a bait containing 0.5 percent by weight of sodium bisulphite. The bait consisted of cracked grains (wheat, corn, millet and corn meal). The amounts of bait eaten were summarized for an eleven day period.

[1] = PTT of coded and various agents, Example 6; type: biochemical; conditions: Table V, coded agents 0.5 mg/ml; Control 43.38
From the text: A variety of agents were coded and evaluated under a code designation. Among these compounds, thiouracil, mercaptosuccinic acid, thiosemicarbazide, phenothiazine and sodium thiosulphate were included, so as to compare sodium bisulphite with certain compounds mentioned in USP 4,148,855.
After determination of PT and PTT values, the coded compounds were decoded.
The results are shown in Table V, where mean values of 5 replications in each case are reported. […] This procedure was repeated with some additional compounds on two different days using a different control on each day.

human plasma [2] = assay: Thrombin Time, Example 4; type: biochemical; conditions: Control 12.00
From the text: (§1) The evaluation procedure used is that described in "Human Blood Coagulation, Haemostasis and Thrombosis", edited by Rosemary Biggs, published by Blackwell Scientific Publications, Oxford, England (2nd Edition), pages 670-705, 1976. […]

[3] = test system: thrombus formation in the jugular vein; assay: Anti-venous thrombotic effect, 125I fibrinogen technique in rabbits; type: in vivo
From the text: Also, a thrombosis is detectable, for example, from a patient's conditions symptomatically perceivable by a skilled medical practitioner and well known to the art of medicine. Objectively, various methods are available, including venography, impedance plethysmography, doppler ultrasound and the 1251-fibrinogen test (see, for example, the articles by Kakkar, "Archives of Surgery", 104, page 152 (1972) and by Kelton, J.G. et al, Journal of Clinical Investigation, Vol. 62, pgs. 892-895, (1978)).
The anti-venous thrombotic effect of sodium bisulphite was evaluated in rabbits by using the 1^125 fibrinogen technique described above.
Each rabbit was continuously infused with aqueous sodium bisulphite solution at the rate of 460 mg/kg per hr. (2.97 grams) (animal body weight 2.3 kg).
After 5 hours, the animal was sacrificed and the radioactive fibrinogen accumulated in the damaged jugular vein was determined. The radioactivity in the contra-lateral (undamaged) jugular vein was also determined, to serve as a control. Concurrently, another rabbit was subjected to the same procedure, but was given only a standard sodium chloride solution, as a control.

Prothrombin = target: T1, Prothrombin (Homo sapiens, UniProt P00734); assay: Prothrombin (Factor II) assay, Example 4; type: biochemical; conditions: for Prothrombin: Control 87
T1 construct: from tissue; host or cells: human plasma
From the text: as §1

[4] = test system: human, rabbit and rat plasma; assay: PTT (partial thromboplastin time) in plasma in vitro, Example 3; type: biochemical; conditions: for PTT (seconds) Exp. 1 A / PTT (seconds) Exp. 2 A: active agent 0.5/ml, control
From the text: Sodium, potassium and ammonium bisulphites are found to prolong PT and PTT in a dose-related fashion.
The evaluation procedure used is that described in "Human Blood Coagulation, Haemostasis and Thrombosis", edited by Rosemary Biggs, published by Blackwell Scientific Publications, Oxford, England (2nd Edition), pages 670-705, 1976.

[5] = test system: platelet aggregation induced by adenosine diphosphate (ADP); conditions: rabbit blood, Kikugawa, cited from earlier work
human plasma [6] = assay: Partial Thromboplastin Time, Example 4; type: biochemical
From the text: as §1

F IX = target: T2, F IX (Homo sapiens, UniProt P00740); assay: Factor IX assay, Example 4; type: biochemical; design: F IX: unit not given beside the values; conditions: for V IX: solution D; for V IX / F IX: Control 66
T2 construct: from tissue; host or cells: human plasma
T2 sequence (P00740 47-461): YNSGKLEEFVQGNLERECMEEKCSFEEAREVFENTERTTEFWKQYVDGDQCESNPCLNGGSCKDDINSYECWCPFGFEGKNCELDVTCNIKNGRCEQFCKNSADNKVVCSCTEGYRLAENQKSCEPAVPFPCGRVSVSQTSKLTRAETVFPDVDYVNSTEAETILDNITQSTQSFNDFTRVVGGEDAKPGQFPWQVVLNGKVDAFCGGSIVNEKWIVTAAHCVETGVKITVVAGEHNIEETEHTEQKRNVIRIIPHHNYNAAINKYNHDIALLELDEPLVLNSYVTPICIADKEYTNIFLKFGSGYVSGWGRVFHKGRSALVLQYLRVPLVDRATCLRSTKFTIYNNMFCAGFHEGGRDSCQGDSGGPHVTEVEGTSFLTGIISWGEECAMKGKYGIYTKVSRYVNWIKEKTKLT
From the text: as §1

[7] = Sodium bisulphite 0.01 mg/ml, solution D
[8] = Sodium bisulphite 0.05 mg/ml, solution D
[9] = Sodium bisulphite 0.1 mg/ml, solution D
[10] = Sodium bisulphite 0.5 mg/ml, solution D
[11] = Sodium bisulphite 1.0 mg/ml, solution D
[12] = Sodium bisulphite 5.0 mg/ml, solution D
[13] = chemical grade sodium bisulphite 0.01 mg/ml
[14] = chemical grade sodium bisulphite 0.05 mg/ml
[15] = chemical grade sodium bisulphite 0.1 mg/ml
[16] = chemical grade sodium bisulphite 0.5 mg/ml
[17] = chemical grade sodium bisulphite 1.0 mg/ml
[18] = chemical grade sodium bisulphite 5.0 mg/ml

Q: What does the source list for Sodium bisulphite?
A: death of rat (rats; 2 days, Rat 1 and Rat 4, bait with 0.5% sodium bisulphite): Died; First day blood factor PT (rats; Rat 5, bait with 0.5% sodium bisulphite): 27; First day blood factor PT, increase (rats; Rats 1, 2, 3, bait with 0.5% sodium bisulphite): 26% increase and 24% increase and 28% increase; change in PTT, first day (rats; three rats with increased PT): no apparent change; PTT [1]: 114.80 s; TT (human plasma [2]; [7]): 12.07 s; TT (human plasma [2]; [8]): 12.10 s; TT (human plasma [2]; [9]): 12.00 s; TT (human plasma [2]; [10]): 13.97 s; TT (human plasma [2]; [11]): 16.08 s; TT (human plasma [2]; [12]): 34.3 s; TT (human plasma [2]; [13]): 12.20 s; TT (human plasma [2]; [14]): 12.30 s; TT (human plasma [2]; [15]): 12.15 s; TT (human plasma [2]; [16]): 14.53 s; TT (human plasma [2]; [17]): 16.23 s; TT (human plasma [2]; [18]): 35.5 s; radioactivity (radioactive fibrinogen) in damaged jugular vein, control rabbit relative to infused rabbit ([3]; continuous infusion 460 mg/kg per hr, 5 hours, control given sodium chloride solution): 7 times; death of other rabbits during infusion ([3]; other rabbits similarly evaluated, apparently overdosing): died before the experiment was completed; Prothrombin (Prothrombin; [7]): 79%; Prothrombin (Prothrombin; [8]): 80%; Prothrombin (Prothrombin; [9]): 72%; Prothrombin (Prothrombin; [10]): 40%; Prothrombin (Prothrombin; [11]): 26%; Prothrombin (Prothrombin; [12]): 5%; Prothrombin (Prothrombin; [13]): 88%; Prothrombin (Prothrombin; [14]): 82%; Prothrombin (Prothrombin; [15]): 75%; Prothrombin (Prothrombin; [16]): 34%; Prothrombin (Prothrombin; [17]): 25%; Prothrombin (Prothrombin; [18]): 8%; effect on Factor II (Prothrombin; human plasma): mildly affected; prolongation of PTT ([4]; 0.5 mg/ml, human, rabbit and rat plasma in vitro, dose-related): significantly prolong; PTT (seconds) Exp. 1 A ([4]; Test sequence A): 128.2 s; PTT (seconds) Exp. 2 A ([4]; Test sequence A): 121.9 s; PTT (seconds) Exp. 1 A ([4]; Test sequence B): 128.2 s; PTT (seconds) Exp. 2 A ([4]; Test sequence B): 162.6 s; inhibition of platelet aggregation induced by ADP ([5]; 1 mM): 9%; inhibition of platelet aggregation induced by ADP ([5]; 5 mM): 66%; inhibition of platelet aggregation induced by ADP ([5]; 10 mM): 69%; PTT (human plasma [6]; Sodium bisulphite 0.01 mg/ml, solution D, Control 12.20): 12.33 s; PTT (human plasma [6]; Sodium bisulphite 0.05 mg/ml, solution D, Control 12.20): 12.43 s; PTT (human plasma [6]; Sodium bisulphite 0.1 mg/ml, solution D, Control 12.20): 12.85 s; PTT (human plasma [6]; Sodium bisulphite 0.5 mg/ml, solution D, Control 12.20): 15.43 s; PTT (human plasma [6]; Sodium bisulphite 1.0 mg/ml, solution D, Control 12.20): 22.63 s; PTT (human plasma [6]; Sodium bisulphite 5.0 mg/ml, solution D, Control 12.20): >150 s; PTT (human plasma [6]; chemical grade sodium bisulphite 0.01 mg/ml, Control 34.67): 32.80 s; PTT (human plasma [6]; chemical grade sodium bisulphite 0.05 mg/ml, Control 34.67): 33.77 s; PTT (human plasma [6]; chemical grade sodium bisulphite 0.1 mg/ml, Control 34.67): 34.40 s; PTT (human plasma [6]; chemical grade sodium bisulphite 0.5 mg/ml, Control 34.67): 44.87 s; PTT (human plasma [6]; chemical grade sodium bisulphite 1.0 mg/ml, Control 34.67): 78.46 s; PTT (human plasma [6]; chemical grade sodium bisulphite 5.0 mg/ml, Control 34.67): >150 s; effect on Factor IX (F IX; 0.5 mg per ml, human plasma): significant inhibitory effect; V IX (F IX; Sodium bisulphite 0.01 mg/ml): 60%; V IX (F IX; Sodium bisulphite 0.05 mg/ml): 52%; V IX (F IX; Sodium bisulphite 0.1 mg/ml): 56%; V IX (F IX; Sodium bisulphite 0.5 mg/ml): 4%; V IX (F IX; Sodium bisulphite 1.0 mg/ml): 3%; V IX (F IX; Sodium bisulphite 5.0 mg/ml): <1%; F IX (F IX; [13]): 49; F IX (F IX; [14]): 44; F IX (F IX; [15]): 40; F IX (F IX; [16]): 5; F IX (F IX; [17]): 1; F IX (F IX; [18]): <1
